According to patent publication EP0474874B1, “Maillard Reaction inhibitor compositions” (Senju Pharmaceutical Co., Ltd., priority 1990, dated 1991):

Legend:
[1] = tested on: furosine formation; experiment: Inhibition of furosine formation (non-enzymatic glycosylation of BSA with glucose, HPLC); format: biochemical, bovine; conditions: 5 mM test compound, 20 mg/ml BSA, 50 mM glucose, 50 mM phosphate buffer pH 7.3, 4 weeks at 37 °C
Procedure: Sample solutions as shown below were aseptically prepared from bovine serum albumine (No. A-8022, Sigma)(hereinafter referred to as BSA), 50 mM phosphate buffer solution (pH 7.3) and the test compounds listed in Table 1 and aminoguanidine.
The sample solutions were kept for 4 weeks at 37 °C, and the amount of furosine which was formed by non-enzymatic glycosylation was determined by HPLC according to the method of Schleicher et al. [J. Clin. Biochem., 19:81-87 (1981).] Thus, the sample solutions after reaction were dialyzed, and aliquots of 1 ml were lyophylized and then hydrolyzed by the addition of 1 ml of 6 N hydrochloric acid followed by heating at 100 °C for 20 hours. After removal of hydrochloric acid by evaporation, 1 ml of water was added to each sample, and the samples were subjected to filtration using a filter with the pore size of 0.45 µm. The filtrate was used as the sample for HPLC. ODS-120T (Tosoh Corporation) was used for the column and 7 mM phosphoric acid solution was used as the eluant. The absorbance peak whose ratio of peak area at […] was 3.9/1 was regarded as the peak corresponding to furosine.
Upon the area of the peak of furosine of each sample, the inhibition rate of furosine formation by the test compound was calculated as follows. Inhibition rate (%)=(c-d)÷(c-n)×100 [formula] c; peak area of furosine of the control sample d; peak area of furosine of the test sample n; peak area of furosine of the normal sample

[2] = patient suffering from diabetes mellitus; cited from earlier work
[3] = tested on: AGE formation in arterial walls; conditions: diabetic rats, in vivo; cited from earlier work
[4] = tested on: Maillard's reaction; conditions: in vitro; cited from earlier work

Row | Structure (SMILES) | Inhibition rate (%) [1] | further results
1 | Nc1ccc(O)cc1C(=O)O [AB-1, 5-hydroxyanthranilic acid] | 94.1% | 
2 | Nc1c(O)cccc1C(=O)O [AB-2, 3-hydroxyanthranilic acid] | 69.4% | 
3 | Nc1cc([N+](=O)[O-])ccc1C(=O)O [AB-3, 4-nitroanthranilic acid] | 47.6% | 
4 | Nc1ccc(O)c(C(=O)O)c1 [AB-4, 5-aminosalicylic acid] | 50.7% | 
5 | Nc1ccc(C(=O)O)c(O)c1 [AB-5, 4-aminosalicylic acid] | 70.0% | adverse effect upon treatment [2]: developed hypoglycaemic coma
6 | Nc1cccc(C(=O)O)c1O [AB-6, 3-aminosalicylic acid] | 53.4% | 
7 | Nc1cc(C(=O)O)ccc1O [AB-7, 3-amino-4-hydroxybenzoic acid] | 60.4% | 
8 | N=C(N)NN [aminoguanidine] | 8.0% | AGE formation in arterial walls [3]: suppresses AGE formation in arterial walls of diabetic rats in vivo; inhibition of Maillard's reaction [4]: inhibits Maillard's reaction in vitro
